Read-outs that look alike come from different tables or passages of the source.
Assays:
isolated rabbit hearts [1] = test: cardiokinetic effect on isolated heart (Langendorff): contractile force after anoxia, positive inotropic effect; details: for Contractile force, Mean ± S.E.: 10 minutes from interruption of anoxic period
Method in brief: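 Rabbit hearts were perfused Langendorff-style with oxygenated Ringer at 38.2 °C. Anoxia was applied until contractile force dropped by 80%, then the hearts were reoxygenated with or without compound. Contractile force was expressed as a percentage 10 min after the anoxic period ended.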

mice = test: in vivo; details: for tolerance: LD50 intravenously in mice, compared with d,l-carnitine
Description: (§1) The tolerance of acetyl-d,l-carnitine and of the other aforementioned acyl derivatives of the formula (I), as well as their salts were investigated by comparing the LD50 obtained by administering the compounds intravenously in mice with the LD50 obtained under the same experimental conditions by intravenous injection of d,l-carnitine.

[2] = test system: adrenaline-induced toxicity; test: antagonism to adrenaline-induced toxicity; type: in vivo, male albino Swiss mice
Experimental: (§2) The antagonism to adrenaline-induced toxicity was also investigated with the following results. Groups of ten male albino Swiss mice were injected with adrenaline (tartrate) intraperitoneally at progressive logarithmic doses. Other similar groups of animals were injected with 250 mg/kg of the compounds under examination via the same route, 30 minutes before adrenaline administration. Mortality was assessed by means of the Litchfield and Wilcoxon method 36 hours after adrenaline administration.

isolated rat atrium = test: antiarrhythmic effect, isolated rat atrium method of M. Libonati and G. Segre; details: for Mean percent variation versus controls: excitability (-%) / Mean percent variation versus controls: frequency max (-%) / inhibition at 0.1 µg/mL / inhibition at 0.01 µg/mL / inhibition at 0.001 µg/mL: decrease; for Mean percent variation versus controls: refractory period (+%) / Mean percent variation versus controls: rheobase (+%) / activation at 0.1 µg/mL / activation at 0.01 µg/mL / activation at 0.001 µg/mL: increase; for inhibition at 0.1 µg/mL / activation at 0.1 µg/mL / inhibition at 0.01 µg/mL / activation at 0.01 µg/mL / inhibition at 0.001 µg/mL / activation at 0.001 µg/mL: Rattus norvegicus
isolated rabbit hearts [3] = test: coronary vasodilator effect: coronary flow, isolated heart (Langendorff)
Method in brief: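 Langendorff-perfused isolated rabbit hearts in oxygenated Ringer at 38.2° C; anoxia imposed until contractile force fell by 80%, then reoxygenated with or without test compound. Coronary flow, isometric contraction and ECG recorded by polygraph.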

female rats = test: antifatigue effect: rota-rod; type: in vivo, rat; details: for responders at 300 mg/kg / responders at 400 mg/kg / responders at 600 mg/kg: Rattus norvegicus, ip, 0.25 h, read-out: percentage of animals staying on the rota-rod more than 180 seconds
Method in brief: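 Female rats dosed intraperitoneally in saline, with controls given saline alone. Every 15 min after treatment animals were placed on a 6 cm rod rotating at 16 r.p.m. Value is the percentage of animals staying on the rod for more than 180 s, per session.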

in vivo = details: mouse, in vivo, iv
Description: as §1

[4] = antagonism to adrenaline-induced toxicity; type: in vivo, male albino Swiss mice; details: mouse, in vivo, ip; adrenaline (tartrate) intraperitoneally, mice; mortality 36 hours; read-out: LD50 (fiducial limits for 95%) of adrenaline alone
Experimental: as §2

[5] = 300 mg/kg i.p., session 1 (every 15 minutes)
[6] = 300 mg/kg i.p., session 2 (every 15 minutes)
[7] = 300 mg/kg i.p., session 4 (every 15 minutes)
[8] = 300 mg/kg i.p., session 5 (every 15 minutes)
[9] = 300 mg/kg i.p., session 6 (every 15 minutes)
[10] = 400 mg/kg i.p., session 1 (every 15 minutes)
[11] = 400 mg/kg i.p., session 2 (every 15 minutes)
[12] = 400 mg/kg i.p., session 3 (every 15 minutes)
[13] = 400 mg/kg i.p., session 4 (every 15 minutes)
[14] = 400 mg/kg i.p., session 5 (every 15 minutes)
[15] = 400 mg/kg i.p., session 6 (every 15 minutes), * p < 0.05
[16] = 600 mg/kg i.p., session 1 (every 15 minutes)
[17] = 600 mg/kg i.p., session 2 (every 15 minutes)
[18] = 600 mg/kg i.p., session 3 (every 15 minutes)
[19] = 600 mg/kg i.p., session 4 (every 15 minutes)
[20] = 600 mg/kg i.p., session 5 (every 15 minutes)
[21] = 600 mg/kg i.p., session 6 (every 15 minutes), * p < 0.05

In the case of `CC(O)CC(=O)OC(CC(=O)[O-])C[N+](C)(C)C` (centres unmarked), the “Contractile force, Mean ± S.E.” value (isolated rabbit hearts [1]; 1·10^-5 g/lt) is reported as 54.3 ± 6.18%, the “Contractile force, Mean ± S.E.” value (isolated rabbit hearts [1]; 1·10^-6 g/lt) is reported as 30.1 ± 4.62% and the “Contractile force, Mean ± S.E.” value (isolated rabbit hearts [1]; 5·10^-6 g/lt) is reported as 38.6 ± 7.12%. The positive inotropic effect (isolated rabbit hearts [1]; equal concentrations in the perfusion fluid, Student's t test) was “greater positive inotropic effect than that induced by d,l-carnitine”, the tolerance (mice) was “better tolerance properties” and the “Approx. LD50” value (mice; intravenously in mice, compounds used as hydrochloryde forms) was ~745 mg/kg. For the same compound, the “antagonism to adrenaline-induced toxicity” value ([2]; 250 mg/kg i.p. 30 minutes before adrenaline) was “antagonize adrenaline-induced toxicity to a greater degree than d,l-carnitine”, the “LD50 (fiducial limits for 95%) of adrenaline after the compound” value ([2]; Adrenaline + compound, compound 250 mg/kg i.p. 30 minutes before adrenaline, mice, mortality 36 hours) was 172.15 (110.02-219.48) mg/kg and the “Mean percent variation versus controls: excitability (-%)” value (isolated rat atrium; 1·10^-4 g/lt) was 63.60%. The “Mean percent variation versus controls: frequency max (-%)” value (isolated rat atrium; 1·10^-4 g/lt) was 42.30%, the “Mean percent variation versus controls: refractory period (+%)” value (isolated rat atrium; 1·10^-4 g/lt) was 27.10% and the “Mean percent variation versus controls: rheobase (+%)” value (isolated rat atrium; 1·10^-4 g/lt) was 42.12%. The “Mean percent variation versus controls: excitability (-%)” value (isolated rat atrium; 1·10^-5 g/lt) was 19.12%, the “Mean percent variation versus controls: frequency max (-%)” value (isolated rat atrium; 1·10^-5 g/lt) was 23.20% and the “Mean percent variation versus controls: refractory period (+%)” value (isolated rat atrium; 1·10^-5 g/lt) was 20.31%. For the same compound, the “Mean percent variation versus controls: rheobase (+%)” value (isolated rat atrium; 1·10^-5 g/lt) was 25.35%, the “Mean percent variation versus controls: excitability (-%)” value (isolated rat atrium; 1·10^-6 g/lt) was 12.07% and the “Mean percent variation versus controls: frequency max (-%)” value (isolated rat atrium; 1·10^-6 g/lt) was 10.02%. The “Mean percent variation versus controls: refractory period (+%)” value (isolated rat atrium; 1·10^-6 g/lt) was 16.32%, the “Mean percent variation versus controls: rheobase (+%)” value (isolated rat atrium; 1·10^-6 g/lt) was 9.78% and the antiarrhythmic effect (isolated rat atrium; isolated rat atrium) was “most clear cut antiarrhythmic properties”. For the same compound, the “Coronary flow, Mean ± S.E.” value (isolated rabbit hearts [3]; 1·10^-5 g/lt) was 89.19 ± 6.75%, the “Coronary flow, Mean ± S.E.” value (isolated rabbit hearts [3]; 1·10^-6 g/lt) was 73.12 ± 6.80% and the “Coronary flow, Mean ± S.E.” value (isolated rabbit hearts [3]; 5·10^-6 g/lt) was 76.04 ± 8.96%. The “percentage of animals staying on the rota-rod more than 180 seconds” value (“percentage of animals staying” below) (female rats; [5]) was 0%, the “percentage of animals staying” value (female rats; [6]) was 0% and the “percentage of animals staying” value (female rats; 300 mg/kg i.p., session 3 (every 15 minutes)) was 0%. The “percentage of animals staying” value (female rats; [7]) was 0%, the “percentage of animals staying” value (female rats; [8]) was 10.0% and the “percentage of animals staying” value (female rats; [9]) was 20.0%. For the same compound, the “percentage of animals staying” value (female rats; [10]) was 0%, the “percentage of animals staying” value (female rats; [11]) was 0% and the “percentage of animals staying” value (female rats; [12]) was 10.0%. For the same compound, the “percentage of animals staying” value (female rats; [13]) was 20.0%, the “percentage of animals staying” value (female rats; [14]) was 20.0% and the “percentage of animals staying” value (female rats; [15]) was 30.0%. For the same compound, the “percentage of animals staying” value (female rats; [16]) was 0%, the “percentage of animals staying” value (female rats; [17]) was 0% and the “percentage of animals staying” value (female rats; [18]) was 10.0%. For the same compound, the “percentage of animals staying” value (female rats; [19]) was 20.0%, the “percentage of animals staying” value (female rats; [20]) was 30.0% and the “percentage of animals staying” value (female rats; [21]) was 40.0%.
With `CC(=O)CC(=O)OC(CC(=O)[O-])C[N+](C)(C)C` (racemic) [acetoacetyl-d,l-carnitine] the “Contractile force, Mean ± S.E.” value (isolated rabbit hearts [1]; 1·10^-5 g/lt) was 58.3 ± 5.08%, the “Contractile force, Mean ± S.E.” value (isolated rabbit hearts [1]; 1·10^-6 g/lt) was 30.1 ± 3.98% and the “Contractile force, Mean ± S.E.” value (isolated rabbit hearts [1]; 5·10^-6 g/lt) was 38.2 ± 4.66%. The LD50 (in vivo) was ~728 mg/kg, the tolerance (mice) was “better tolerance properties” and the inhibition at 0.1 µg/mL (isolated rat atrium; 1·10^-4 g/lt, read-out: Mean percent variation versus controls: excitability (-%)) was 40.1%. The inhibition at 0.1 µg/mL (isolated rat atrium; 1·10^-4 g/lt, read-out: Mean percent variation versus controls: frequency max (-%)) was 25.5%, the activation at 0.1 µg/mL (isolated rat atrium; 1·10^-4 g/lt, read-out: Mean percent variation versus controls: refractory period (+%)) was 22.8% and the activation at 0.1 µg/mL (isolated rat atrium; 1·10^-4 g/lt, read-out: Mean percent variation versus controls: rheobase (+%)) was 21.9%. It also gave an inhibition at 0.01 µg/mL (isolated rat atrium; 1·10^-5 g/lt, read-out: Mean percent variation versus controls: excitability (-%)) of 27.1%, an inhibition at 0.01 µg/mL (isolated rat atrium; 1·10^-5 g/lt, read-out: Mean percent variation versus controls: frequency max (-%)) of 22.7% and an activation at 0.01 µg/mL (isolated rat atrium; 1·10^-5 g/lt, read-out: Mean percent variation versus controls: refractory period (+%)) of 14.7%. It also gave an activation at 0.01 µg/mL (isolated rat atrium; 1·10^-5 g/lt, read-out: Mean percent variation versus controls: rheobase (+%)) of 9.94%, an inhibition at 0.001 µg/mL (isolated rat atrium; 1·10^-6 g/lt, read-out: Mean percent variation versus controls: excitability (-%)) of 12.2% and an inhibition at 0.001 µg/mL (isolated rat atrium; 1·10^-6 g/lt, read-out: Mean percent variation versus controls: frequency max (-%)) of 7.34%. For the same compound, the activation at 0.001 µg/mL (isolated rat atrium; 1·10^-6 g/lt, read-out: Mean percent variation versus controls: refractory period (+%)) was 10.7%, the activation at 0.001 µg/mL (isolated rat atrium; 1·10^-6 g/lt, read-out: Mean percent variation versus controls: rheobase (+%)) was 3.01% and the “Coronary flow, Mean ± S.E.” value (isolated rabbit hearts [3]; 1·10^-5 g/lt) was 89.82 ± 6.38%. For the same compound, the “Coronary flow, Mean ± S.E.” value (isolated rabbit hearts [3]; 1·10^-6 g/lt) was 74.65 ± 3.54%, the “Coronary flow, Mean ± S.E.” value (isolated rabbit hearts [3]; 5·10^-6 g/lt) was 75.70 ± 10.1% and the responders at 300 mg/kg (female rats; [5]) was 0%. It also gave a responders at 300 mg/kg (female rats; [6]) of 0%, a responders at 300 mg/kg (female rats; [7]) of 10% and a responders at 300 mg/kg (female rats; [8]) of 10%. For the same compound, the responders at 300 mg/kg (female rats; [9]) was 10%, the responders at 400 mg/kg (female rats; [10]) was 0% and the responders at 400 mg/kg (female rats; [11]) was 0%. For the same compound, the responders at 400 mg/kg (female rats; [12]) was 20%, the responders at 400 mg/kg (female rats; [13]) was 20% and the responders at 400 mg/kg (female rats; [14]) was 20%. The responders at 400 mg/kg (female rats; [15]) was 30%, the responders at 600 mg/kg (female rats; [16]) was 0% and the responders at 600 mg/kg (female rats; [17]) was 10%. For the same compound, the responders at 600 mg/kg (female rats; [18]) was 20%, the responders at 600 mg/kg (female rats; [19]) was 40% and the responders at 600 mg/kg (female rats; [20]) was 40%. For the same compound, the responders at 600 mg/kg (female rats; [21]) was 40%.
`CNCC(O)c1ccc(O)c(O)c1` (centres unmarked) [Adrenaline, reference compound] gave an LD50 at 36 h [4] of 27.7 mg/kg.

Source: US4194006A, “Therapeutic application of acetyl-d,l-carnitine and other acyl derivatives of d,l-carnitine” (priority 1977, dated 1980)
